Laboratory results from US9102636B2, “Analgesic compounds, compositions, and uses thereof” (Galleon Pharmaceuticals, Inc., priority 2010, dated 2015).
“And” between values parts separate entries of the source, which are not always exact repeats. Identical values can stand only once. “Also recorded” adds a separate entry of the source.

Experiments:
[1] = tested on: Carrageenan-induced thermal hyperalgesia; experiment: Carrageenan-induced thermal hyperalgesia (Hargreaves); format: in vivo, rat; settings: for Paw withdrawal latency: cut-off 40 s, individual animals
[2] = tested on: fentanyl analgesia (Hargreaves); experiment: Preservation of fentanyl analgesia in Hargreaves thermal plantar model; format: in vivo; settings: rat; compound IV 15 min before fentanyl 25 μg/kg; FIG. 2
ataxia (rotarod) = experiment: Accelerating rotarod assay of ataxia (latency to fall); format: in vivo, rat; settings: for Latency to fall: maximum 300 seconds, individual animals
Method: Compound 2 was evaluated in a rat accelerating rotarod model of ataxia. Ataxia is a common clinical problem with CNS-active compounds and can often confound interpretation of efficacy in preclinical pain models. The rotarod assay of ataxia has been widely used to assess the side-effect liability of novel pharmacological treatments (Jones & Roberts, 1968, J. Pharm. […] The positive control was haloperidol (Sigma, St. […] Male Sprague-Dawley Rats (Harlan, Ill.) were 250-300 g at time of dosing. Rotarod was obtained from IITC, CA. To examine the potential effects of Compound 2 on motor performance, rats were tested on an accelerating rotarod (IITC, Ca). […] Rats received two timed training trials (averaged to give the reported baseline) on the first day, then 24 hr later rats were administered Compound 2 (30, 100 and 300 mg/kg, p.o.), haloperidol (3 mg/kg, p.o.), the positive control, or vehicle. […] Statistical significance was determined on untransformed data using a two-way analysis of variance (Graphpad Prism, NC). Significant main effects were analyzed further by subsequent Bonferronni post-hoc test. The level of significance was set at p<0.05. Data are shown as mean±S.E.M. (with an asterisk to denote significance as compared to vehicle treated controls).

[3] = tested on: Carrageenan-induced edema; experiment: Carrageenan-induced edema (paw volume); format: in vivo, rat
Method: The effect of Compound 2 in the rat carrageenan model of acute inflammatory pain was evaluated. The intraplantar carrageenan model of acute inflammatory pain in the rat results in behaviors similar to that observed in patients and has been widely used to assess novel pharmacological treatments (Whiteside et al., 2005, J. Pharmacol. Exp. Ther. 314:1234-1240). The objective of this study was to evaluate the ability of Compound 2 to reverse or prevent development of thermal hyperalgesia and edema in the rat carrageenan model of acute inflammatory pain. The positive control was indomethacin (Sigma, St. Louis), and the negative control was vehicle (0.5% methyl cellulose). […] The Hargreaves apparatus was obtained from Ugo Basile, Italy, and the lamba-carrageenan was obtained from Sigma, St. Louis. For this assay, paw withdrawal latency to a thermal stimulus was assessed using a radiant heat source (Ugo Basile, Italy) aimed at the plantar surface of the left hind paw (Hargreaves test). […] Paw volume was measured by displacement of water and assuming a tissue density equal to that of water. Baseline latencies were taken prior to carrageenan administration and re-assessed 4 h later. […] Indomethacin (positive control, 30 mg/kg p.o.) was administered prior to carrageenan and behavior assessed 4 hrs post-carrageenan. […] After induction of anesthesia, the injection site was prepared in a sterile manner and 50 μl of a 2% Jamba-carrageenan was injected. After injection, animals were weighed and allowed to recover before being returned to their home cages. Statistical significance was determined on untransformed data using a two-way analysis of variance (Graphpad Prism, NC). Significant main effects were analyzed further by subsequent Bonferronni post-hoc test. The level of significance was set at p<0.05. Data are shown as mean±S.E.M. (with an asterisk to denote significance as compared to vehicle treated controls).

[4] = L-012 assay: inhibition of SIN-1 generated peroxynitrite induced luminescence/fluorescence of L-012; format: biochemical; settings: 15 minute time point; average of three plates
Method: Luminol like compound “L-012” is a chemilumescent probe that is activated by the presence of a ROS and/or RNS such as peroxynitrite. In this assay L-012 was oxidized by the addition of 3-Morpholino-sydnonimine (“SIN-1”), a known peroxynitrite generator. The emitted fluorescence was directly proportional to the concentration of SIN-1. The compounds of the invention were then assessed for their ability to scavenge peroxynitrite by blocking the increase of peroxynitrite induced fluorescence. Concentrations of compound producing 50% inhibition of the fluorescence signal (IC50 values) were calculated by testing the compounds of the invention at various concentrations and averaging the IC50 of three plates.
The following solutions were added to white polystyrene, non-sterile 96-well plate (Costar #3912): 196 μL of 50 μM L-012; 2 μL of the test compound; and 24 μL of 500 mM SIN-1. Fresh stock of 50 μM L-012 in PBS pH 7.4 was made for each 96 well plate that was analyzed. The plates were read in a FlexStation3 (Molecular Devices) using the luminescent mode at 37° C. for 30 min, with a measurement every 30 seconds and an integration time of 100 msec.
Luminescence signal was recorded by the FlexStation3 kinetically at 37° C. for 30 minutes, with a measurement every 30 seconds and an integration time of 100 msec. The data in rows A and H were dropped from each plate to exclude the possibility of an ‘edge effect’. Thus, each test compound had 3 replicates per plate.

[5] = rat, 10 and 30 mg/kg p.o. 15 minutes prior to carrageenan

For `CC1(C)SC(Nc2ccccc2O)=N[C@@H]1C(=O)O` [Compound 2, (R)-2-(2-hydroxyphenylamino)-thiazoline-5,5-dimethyl-4-carboxylic acid], the “Paw withdrawal latency” value ([1]; compound 2 10 mg/kg p.o. preemptive (15 minutes prior to carrageenan), baseline prior to carrageenan (first line), 10 mg/kg) was 20.94 s and 40 s and 25.09 s and 26.96 s and 13.66 s and 23.25 s, the “Paw withdrawal latency” value ([1]; compound 2 10 mg/kg p.o. preemptive, 4 hours post carrageenan (second line), 10 mg/kg) was 8.1 s and 5.07 s and 20.71 s and 12.18 s and 11.94 s and 9.38 s and the “Paw withdrawal latency” value ([1]; compound 2 30 mg/kg p.o. preemptive, 4 hours post carrageenan (second line), 30 mg/kg) was 11.57 s and 16.63 s and 6.81 s and 11 s and 32.38 s and 11.6 s. For the same compound, the “Paw withdrawal latency” value ([1]; compound 2 30 mg/kg p.o. preemptive, baseline prior to carrageenan (first line), 30 mg/kg) was 27.75 s and 15.78 s and 35.57 s and 23.26 s and 18.37 s and 25.78 s, the “carrageenan-induced thermal hyperalgesia, preemptive (finding in words)” value [1, 5] was “did not significantly prevent” and the “preservation of fentanyl analgesia, Hargreaves thermal hyperalgesia model” value [2] was “dose-dependently preserves fentanyl analgesia”. For the same compound, the “Latency to fall” value (ataxia (rotarod); compound 2 30 mg/kg p.o., Baseline, 30 mg/kg) was 70 sec and 108.5 sec and 72 sec and 68 sec (2×) and 52 sec and 49 sec and 60.5 sec and 48.5 sec and 47.5 sec (2×) and 97 sec, the “Latency to fall” value (ataxia (rotarod); compound 2 30 mg/kg p.o., Post-Drug (1 hr), 30 mg/kg) was 39 s and 99 s and 72 s and 94 s and 66 s and 81 s and 133 s and 120 s and 56 s and 115 s and 50 s and 70 s and the “Latency to fall” value (ataxia (rotarod); compound 2 100 mg/kg p.o., Baseline, 100 mg/kg) was 43.5 s and 75.5 s and 55 s and 63 s and 60.5 s and 73.5 s and 73 s and 72 s and 54.5 s and 54 s and 46.5 s and 53 s. The “Latency to fall” value (ataxia (rotarod); compound 2 100 mg/kg p.o., Post-Drug (1 hr), 100 mg/kg) was 86 sec and 64 sec and 45 sec (2×) and 111 sec and 91 sec and 221 sec and 72 sec (2×) and 66 sec and 20 sec and 199 sec, the “Latency to fall” value (ataxia (rotarod); compound 2 300 mg/kg p.o., Baseline, 300 mg/kg) was 84 sec and 76.5 sec and 57 sec and 86.5 sec (2×) and 81.5 sec and 79 sec and 71.5 sec and 61 sec and 97.5 sec and 89 sec and the “Latency to fall” value (ataxia (rotarod); compound 2 300 mg/kg p.o., Post-Drug (1 hr), 300 mg/kg) was 184 sec (2×) and 55 sec (2×) and 112 sec and 105 sec and 124 sec and 175 sec and 43 sec and 131 sec and 78 sec. The “latency to fall, accelerating rotarod (finding in words)” value (ataxia (rotarod); rat, 30, 100 and 300 mg/kg p.o., 1 hr post-dosing) was “did not significantly decrease latency to fall; also recorded: did not significantly reduce latency to fall”, the “Paw volume” value ([3]; 1 hr post-drug, compound 2 10 mg/kg p.o. 3 hrs after carrageenan (curative), FIG. 21B, 10 mg/kg) was 2.6 mL and 2.9 mL and 2.5 mL and 2.7 mL and the “Paw volume” value ([3]; 1 hr post-drug, compound 2 30 mg/kg p.o. 3 hrs after carrageenan (curative), FIG. 21B, 30 mg/kg) was 2.4 mL and 2.6 mL and 2.5 mL and 2.9 mL and 2.3 mL. For the same compound, the “Paw volume” value ([3]; Pre-Cg, compound 2 10 mg/kg group, individual rats, FIG. 21B, 10 mg/kg) was 1.7 mL (2×) and 1.8 mL (3×) and 1.6 mL, the “Paw volume” value ([3]; Pre-Cg, compound 2 30 mg/kg group, individual rats, FIG. 21B, 30 mg/kg) was 1.6 mL (3×) and 1.7 mL (2×) and 1.8 mL and 1.5 mL and the “Paw volume” value ([3]; compound 2 10 mg/kg p.o. preemptive, 4 hr post-drug, individual animals, 10 mg/kg) was 3.3 mL and 2.8 mL (2×) and 3.2 mL and 3.1 mL and 2.9 mL. For the same compound, the “Paw volume” value ([3]; compound 2 10 mg/kg p.o. preemptive, Pre-Cg, individual animals, 10 mg/kg) was 1.7 mL (2×) and 1.6 mL (3×) and 1.5 mL, the “Paw volume” value ([3]; compound 2 30 mg/kg p.o. preemptive, 4 hr post-drug, individual animals, 30 mg/kg) was 2.9 mL and 2.7 mL (4×) and 2.8 mL and the “Paw volume” value ([3]; compound 2 30 mg/kg p.o. preemptive, Pre-Cg, individual animals, 30 mg/kg) was 1.7 mL (3×) and 1.6 mL (2×) and 1.8 mL. The “carrageenan-induced edema, preemptive (finding in words)” value [3, 5] was “did not significantly prevent”, the “carrageenan-induced edema, curative (finding in words)” value ([3]; rat, p.o. 3 hours post-carrageenan, significant at 30 mg/kg, 30 mg/kg) was “significantly reversed edema” and the IC50 [4] was 130 nM.
